US5294724A, “4-hydroxytetrahydropyran-2-ones and the corresponding dihydroxycarboxylic acid derivatives, salts and esters and a process for their preparation” (priority 1989, dated 1994)
Counter-ions that a name gives are not always drawn. Like-named read-outs stand apart in the source and are kept apart here. Each block holds one compound with its values, some of them ahead of it.

Assays:
serum total cholesterol = assay: Hypocholesterolemic activity in rabbits after p.o. administration; type: in vivo, male white New Zealand rabbits; conditions: rabbit p.o.
Method: 4) Hypocholesterolemic activity in rabbits after p.o. administration
Normolipemic male white New Zealand rabbits, body weight 3-3.5 kg, were divided into groups of 5 animals. The groups in each case received one of the test compounds (sodium salts of the compounds of the formula II), suspended in 1% aqueous methylcellulose (®Tylose MH 300), 5.10 or 20 mg/kg/day daily in the morning by stomach tube. The animals of the control groups received only Tylose MH 300. Every 3-4 days samples of venous blood were taken from all animals 20 hours after the oral administration. The serum total cholesterol was determined enzymatically in these samples using the test combination of Boehringer Mannheim (CHOD-PAP high performance method). The serum cholesterol level of the treated animals was compared with that of the control groups. A "discharge phase" followed the 20-day "treatment phase", in which the change in the serum cholesterol level was further monitored.

HEP G2 cells = assay: Inhibition of cholesterol biosynthesis in cell cultures (HEP G2 cells), incorporation of 14C-sodium acetate in cholesterol; type: cell-based; conditions: for IC50 / IC70: Homo sapiens; for Relative potency in %: from IC50
Method: 2) Inhibition of cholesterol biosynthesis in cell cultures (EEP G2 cells)
Determination of the inhibition of the incorporation of ^14 C-sodium acetate in cholesterol
Monolayers of HEP G2 cells in lipoprotein-free medium were preincubated with various concentrations of the sodium salts of the dihydroxycarboxylic acids of the formula II for 1 hour. After adding ^14 C-labeled sodium acetate, the incubation was continued for 3 hours. Tritium-labeled cholesterol was added as an internal standard and an aliquot of the cells was subjected to alkaline hydrolysis. The lipids were extracted using chloroform/methanol 2: 1. After adding carrier cholesterol, the lipid mixture was preparatively separated on TLC plates using chloroform/acetone 9: 1. The cholesterol zone was made visible by staining with iodine vapor, additionally detected using a TLC radio scanner and then scraped off. The amount of ^14 C-cholesterol formed was determined scintigraphically and related to mg of cell protein. The same procedure was carried out with cells from the Bame culture without preincubation with a test compound (so-called "solvent control"). The potency of the test compounds was determined by comparison of the biosynthesized ^14 C-cholesterol in test runs and in "solvent control".

HMG-CoA reductase = molecular target: T1, HMG-CoA reductase (Rattus norvegicus, UniProt P51639); assay: Inhibition of HMG-CoA reductase activity in solubilized enzyme preparations from rat liver microsomes; type: biochemical; conditions: sodium salts of the dihydroxycarboxylic acids; mean of 3 parallel samples; read-out: IC50 (molar concentration necessary for a 50% inhibition)
T1 construct: solubilized enzyme preparations from liver microsomes of rats; from tissue; host or cells: rat liver microsomes (cholestyramine-induced rats), solubilized
T1 sequence (P51639 1-887): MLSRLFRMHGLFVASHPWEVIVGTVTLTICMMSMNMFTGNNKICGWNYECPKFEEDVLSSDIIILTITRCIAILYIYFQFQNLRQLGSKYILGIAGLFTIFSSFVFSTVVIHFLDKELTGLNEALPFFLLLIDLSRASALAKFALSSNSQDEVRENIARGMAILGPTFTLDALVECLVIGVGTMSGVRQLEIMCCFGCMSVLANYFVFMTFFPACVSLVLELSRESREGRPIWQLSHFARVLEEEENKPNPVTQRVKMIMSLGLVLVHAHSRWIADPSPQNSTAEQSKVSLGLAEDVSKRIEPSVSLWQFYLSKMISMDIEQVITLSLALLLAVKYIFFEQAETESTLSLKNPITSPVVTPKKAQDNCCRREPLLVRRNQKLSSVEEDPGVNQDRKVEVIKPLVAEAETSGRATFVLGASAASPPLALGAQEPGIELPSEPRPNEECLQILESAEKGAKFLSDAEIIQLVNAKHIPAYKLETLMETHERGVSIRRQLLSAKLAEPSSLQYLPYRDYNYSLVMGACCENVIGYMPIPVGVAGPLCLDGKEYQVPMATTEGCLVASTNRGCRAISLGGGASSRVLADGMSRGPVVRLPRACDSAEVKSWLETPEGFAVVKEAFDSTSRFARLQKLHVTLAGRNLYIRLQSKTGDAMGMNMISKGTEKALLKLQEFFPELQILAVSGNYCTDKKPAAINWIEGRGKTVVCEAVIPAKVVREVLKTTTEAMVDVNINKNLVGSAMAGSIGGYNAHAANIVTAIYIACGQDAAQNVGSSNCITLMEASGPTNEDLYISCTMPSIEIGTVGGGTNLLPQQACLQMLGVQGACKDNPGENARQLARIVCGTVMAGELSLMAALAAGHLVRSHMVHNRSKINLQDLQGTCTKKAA
Method: 1) Inhibition of HKG-CoA reductase activity in solubilized enzyme preparations from rat liver microsomes
HMG-CoA reductase activity was measured on solubilized enzyme preparations from liver microsomes of rats which had been induced by conversion into the day/night rhythm using cholestyramine (®Cuemid). (S,R)^14 C-HMG-CoA was used as a substrate, and the concentration of NADPH was maintained during the incubation by a regenerating system. The separation of ^14 C-mevalonate from substrate and other products (for example ^14 C-HMG) was carried out by column elution, the elution profile of each individual sample being determined. The regular addition of ^3 H-mevalonate was avoided as the determination gives the data relative to the inhibitory action. The enzyme-free control, the enzyme-containing normal mixture (=100%) and those containing preparation additives were in each case treated together in one series of experiments. The sodium salts of the dihydroxycarboxylic acids of the formula II were always employed as the preparation in this test. Each individual value was formed as the mean value of 3 parallel samples. The significance of the mean value differences between preparation-free and preparation-containing samples was evaluated by the t-test.

[1] = tested on: microsomal lipid peroxidation; assay: Inhibition of microsomal lipid peroxidation (in vitro); type: biochemical; conditions: for IC50: microsomes, read-out: IC50 (50% inhibition of lipid peroxidation)
Method: 5) Inhibition of microsomal lipid peroxidation (in vitro)
The inhibition of lipid peroxidation was measured under the experimental conditions described by H. Wafers and H. Sies, Eur. J. Biochem. 174, 353-357 (1988). The microsomes were obtained according to the literature cited therein. IC50 denotes the concentration of the test compound in moles per liter which causes a 50% inhibition of lipid peroxidation.

serum lipoproteins = assay: Action on serum lipoproteins and other metabolic parameters of male rats in the subchronic test; type: in vivo; conditions: rat
Method: 3) Action on serum lipoproteins and other metabolic parameters of male rats in the subchronic test
Groups of male rats of the strain HOE: WISKf (SPF 71) having a starting weight of above 180 g received the test preparations daily in the morning (sodium salts of the dihydroxycarboxylic acids of the formula II) in polyethylene glycol 400 by stomach tube; the respective control group received only the vehicle. The last (7th) administration was carried out 24 hours before taking blood and sacrificing. There was free access to food and water during the experiment. 24 hours before taking blood, which wall carried out retroorbitally under slight ether anesthesia before and after the treatment period (i.e. on the 1st and 8th day), the food was withdrawn. Total cholesterol was determined in the serum of each individual animal [CHODPAP high performance method of Boehringer Mannheim], and, as a measure of the triglycerides, total glycerol was also determined analytically from the serum pool of all the animals of one group [GPO-PAP high performance method, Boehringer Mannheim].
Immediately after taking blood, the animals were sacrificed by dislocation of the spine, and the relative liver weight, the change in body weight and the food consumption were determined.
For the analysis of the serum lipoproteins, the serum of all the rats of one group was pooled. The serum lipoproteins were separated using the preparative ultracentrifuge.
The following conditions were used for the separation of the fractions VLDL, LDL and HDL:
The determination of the protein was carried out by the method of Lowry et al. [LOWRY O. H., ROSEBOROUGH, N.J., PARR, A. L. and RANDELL, R. J.: J. Biol. Chem. 193, 265 (1951)].

[2] = 10 mg then 20 mg/kg per day, discharge phase 3
[3] = 10 mg then 20 mg/kg per day, discharge phase 6
[4] = 10 mg then 20 mg/kg per day, discharge phase 11
[5] = 10 mg then 20 mg/kg per day, discharge phase 22
[6] = 10 mg/kg per day (up to 10th day), administration 3
[7] = 10 mg/kg per day (up to 10th day), administration 10
[8] = 20 mg/kg per day (from 11th day), administration 14
[9] = 20 mg/kg per day (from 11th day), administration 17
[10] = 20 mg/kg per day (from 11th day), administration 20
[11] = HepG2, sodium salts, test compounds corrected by deviation of mevinolin sodium from its mean value, read-out: IC50 (concentration necessary for a 50% inhibition)
[12] = 100 mg/kg daily by stomach tube, 7 administrations

SMILES: CC(C)c1cc(-c2ccc(F)cc2)c(OC[C@@H](O)C[C@@H](O)CC(=O)[O-])c(C(C)C)c1.[Na+] [Compound C, 3(R),5(S)-dihydroxy-6[-2-(4-fluorophenyl)-4,6-diisopropylphenoxy]hexanoicacid sodium salt]
Serum total cholesterol, % change compared to control group (serum total cholesterol; [2]): -13%
Serum total cholesterol, % change compared to control group (serum total cholesterol; [3]): -23%
Serum total cholesterol, % change compared to control group (serum total cholesterol; [4]): -16%
Serum total cholesterol, % change compared to control group (serum total cholesterol; [5]): +18%
Serum total cholesterol, % change compared to control group (serum total cholesterol; [6]): +7%
Serum total cholesterol, % change compared to control group (serum total cholesterol; [7]): -32%
Serum total cholesterol, % change compared to control group (serum total cholesterol; [8]): -31%
Serum total cholesterol, % change compared to control group (serum total cholesterol; [9]): -37%
Serum total cholesterol, % change compared to control group (serum total cholesterol; [10]): -36%
IC50 (HEP G2 cells; HepG2, read-out: IC50 (concentration necessary for a 50% inhibition)): 27 nM
IC70 (HEP G2 cells; HepG2, read-out: IC70 (concentration necessary for a 70% inhibition)): 70 nM
Relative potency in % (HEP G2 cells; mevinolin sodium = 100): 185%
Relative potency in % (value in parentheses) (HEP G2 cells; mevinolin sodium = 100, in parentheses, corresponds to IC70): 214%

SMILES: CC[C@H](C)C(=O)O[C@H]1C[C@@H](C)C=C2C=C[C@H](C)[C@H](CC[C@@H]3C[C@@H](O)CC(=O)O3)[C@H]21 [Mevinolin]
Serum total cholesterol, % change compared to control group (serum total cholesterol; [2]): +14%
Serum total cholesterol, % change compared to control group (serum total cholesterol; [3]): -1%
Serum total cholesterol, % change compared to control group (serum total cholesterol; [4]): +2%
Serum total cholesterol, % change compared to control group (serum total cholesterol; [5]): 0%
Serum total cholesterol, % change compared to control group (serum total cholesterol; [6]): -12%
Serum total cholesterol, % change compared to control group (serum total cholesterol; [7]): -30%
Serum total cholesterol, % change compared to control group (serum total cholesterol; [8]): -27%
Serum total cholesterol, % change compared to control group (serum total cholesterol; [9]): -24%
Serum total cholesterol, % change compared to control group (serum total cholesterol; [10]): -26%

SMILES: CC(C)c1cc(SC(C)(C)Sc2cc(-c3ccc(F)cc3)c(O)c(C(C)C)c2)cc(-c2ccc(F)cc2)c1O [Process Example 5, 4,4-(Isopropylidenedithio)-bis-[(2-isopropyl-6-p-fluorophenyl)phenol]]
Inhibition at 10^-5 mol/l [1]: 11%

SMILES: CC(C)Sc1cc(-c2ccc(F)cc2)c(O)c(C(C)C)c1 [Process Example 8, 2-(p-Fluorophenyl)-4-(isopropylthio)-6-isopropylphenol]
Inhibition at 10^-5 mol/l [1]: 1%

SMILES: CC(=O)Oc1c(-c2ccc(F)cc2)c(C(C)C)c(O)c(C(C)C)c1C(C)C [Process Example 23, 2,5,6-Triisopropyl-3-(p-fluorophenyl)-4-acetoxyphenol]
Inhibition at 10^-5 mol/l [1]: 98%
IC50 [1]: 2800 nM

SMILES: CCOC(=O)C(C)(C)Oc1ccc(Cl)cc1 [clofibrate, reference compound]
Body weight, % changes in the mean value relative to starting (serum lipoproteins; [12]): +8%
Food consumption, % changes in the mean value relative to control (serum lipoproteins; [12]): +1%
Glycerol VLDL, % change compared to control (serum lipoproteins; [12]): +4%
Liver weight, % changes in the mean value relative to control (serum lipoproteins; [12]): +15%
Protein LDL, % change compared to control (serum lipoproteins; [12]): -9%
Protein VLDL, % change compared to control (serum lipoproteins; [12]): -16%
Total cholesterol HDL, % change compared to control (serum lipoproteins; [12]): -29%
Total cholesterol LDL, % change compared to control (serum lipoproteins; [12]): -19%
Total cholesterol VLDL, % change compared to control (serum lipoproteins; [12]): -40%
Cholesterol HDL/LDL (serum lipoproteins; 100 mg/kg daily, control standardization to 1.00): 0.88

SMILES: CC[C@H](C)C(=O)O[C@H]1C[C@@H](C)C=C2C=C[C@H](C)[C@H](CC[C@@H](O)C[C@@H](O)CC(=O)O)[C@H]21 [mevinolin sodium salt, reference compound]
IC50 (HEP G2 cells; [11]): 50 nM
IC70 (HEP G2 cells; HepG2, sodium salts, test compounds corrected by deviation of mevinolin sodium from its mean value, read-out: IC70 (concentration necessary for a 70% inhibition)): 150 nM
IC70 (concentration necessary for a 70% inhibition) (HEP G2 cells; sodium salts, test compounds corrected by deviation of mevinolin sodium from its mean value): 150 nM

More lines, main results first:

IC50 (HMG-CoA reductase): 4 nM
IC50 (HEP G2 cells; [11]): 3.8 nM
SMILES: Cc1cc(-c2cc(Sc3ccc(F)cc3)cc(C(C)C)c2OC[C@@H](O)C[C@@H](O)CC(=O)O)ccc1F [Example 3]
Relative potency in % (HEP G2 cells; mevinolin sodium = 100): 1316%

IC50 [1]: 4400 nM
SMILES: CC(C)c1cc(S)cc(-c2ccc(F)cc2)c1O [Process Example 4, 2-(P-Fluorophenyl)-4-mercapto-6-isopropylphenol]
Inhibition at 10^-5 mol/l [1]: 90%

IC50 [1]: 4000 nM
SMILES: CC(C)c1cc(Sc2ccccc2)cc(-c2ccc(F)cc2)c1O [Process Example 7, 2-(p-Fluorophenyl)-4-(phenylthio)-6-isopropylphenol]
Inhibition at 10^-5 mol/l [1]: 92%

IC50 [1]: 1500 nM
SMILES: Oc1c(-c2ccc(F)cc2)cc(Sc2ccc(F)cc2)cc1C1CC1 [Process Example 12, 2-(p-Fluorophenyl)-4-(p-fluorophenylthio)-6-cyclopropylphenol]
Inhibition at 10^-5 mol/l [1]: 99%

IC50 [1]: 1600 nM
SMILES: CC(C)c1c(O)c(C(C)C)c(C(C)C)c(O)c1-c1ccc(F)cc1 [Process Example 22, 2-(p-Fluorophenyl)-3,5,6-triisopropyl-1,4-hydroquinone]
Inhibition at 10^-5 mol/l [1]: 99%
